Where two headings read alike, the source gives them in different places.
How the values were obtained:
[1] = test system: anesthetized rats (evoked responses of anterior tibial muscle); assay: In vivo neuromuscular block and cardiovascular side effects, anesthetized rat (Example 8, Table 3); settings: for RI (recovery index): spontaneous recovery, 25-75% neuromuscular response; for Onset: time to 80-85% neuromuscular block
Description: The neuromuscular blocking activity and other effects (e.g. cardiovascular side effects) of selected agents were investigated on several different experimental animals. Justification for this approach lies in the commonly known fact that the pharmacodynamic and pharmacokinetic properties of these agents are markedly variable from species to species. Therefore, the most important aspects of the projected therapeutic utility of these agents, e.g., neuromuscular blocking potency, onset and duration of action, and side effects cannot be ascertained in “in vitro” preparations or by using only one species of animals.
a) Adult, male albino rats were anesthetized with pentobarbital injected intraperitoneally. The trachea was cannulated for artificial respiration via a small animal respirator. The carotid artery was cannulated for recording blood pressure via a transducer and heart rate by a cardiotachograph on a polygraph. One external jugular vein was cannulated for i.v. drug administration. Neuromuscular function was monitored by electromyography, recording evoked responses from the anterior tibial muscle as a result of supramaximal nerve stimuli consisting of single or “train-of-four” rectangular pulses of 0.1-0.2 msec duration every 10-12 seconds, delivered to the sciatic or common peroneal nerve by a laboratory nerve stimulator. Another mode of stimulation included repeated single stimuli delivered at 0.1 Hz or 1 Hz. […] The agents were dissolved in physiologic saline and injected intravenously at appropriate time intervals. The intensity, onset, and duration of neuromuscular block and its type were determined with each agent. Through administering several doses, the doses corresponding to 50%, 80% and 90% neuromuscular block were determined. All agents were compared with selected standard neuromuscular blocking compounds, e.g. succinylcholine, pancuronium, mivacurium, or rocuronium.
Onset=time in minutes to 80-85% neuromuscular block.
RI=recovery index, minutes, spontaneous recovery, 25-75% neuromuscular response.
VB=vagal block, %, at 80-85% neuromuscular blocking dose.
ΔHR=change in heart rate, %, at 80-85% neuromuscular blocking dose.
ΔBP=change in arterial blood pressure, %, at 80-85% neuromuscular blocking dose.

[2] = test system: anesthetized juvenile pigs; assay: animal or person; assay type: in vivo; settings: pig; for ED50: intravenous dose causing 50% neuromuscular block; for RI (recovery index): spontaneous recovery, 25-75% neuromuscular response; for Onset: time to 80-85% neuromuscular block
Description: Both electromyographic and mechanomyographic responses can be quantified.
The techniques described under a) and b) were employed in other species as needed with the modification that juvenile pigs were initially anesthetized with inhalation of halothane (Table 5) and monkeys were initially sedated with intramuscular ketamine injections prior to inducing and maintaining general anesthesia using pentobarbital and propofol administered intravenously (Table 6).

[3] = test system: rabbits; assay: In vivo neuromuscular block and cardiovascular side effects, rabbit (Example 8, Table 7); settings: for ED50: intravenous dose causing 50% neuromuscular block; for RI (recovery index): spontaneous recovery, 25-75% neuromuscular response; for Onset: time to 80-85% neuromuscular block
[4] = rat, at 80-85% neuromuscular blocking dose
[5] = at 80-85% neuromuscular blocking dose
[6] = Oryctolagus cuniculus, read-out: ED50
[7] = rat, intravenous dose causing 50% neuromuscular block

## CCC(=O)Oc1ccc(C[N+]2(C)[C@@H]3CC[C@H]2C[C@@H](OC(=O)C2CCC2C(=O)O[C@H]2C[C@H]4CC[C@@H](C2)[N+]4(C)Cc2ccc(OC(=O)CC)c(OC(=O)CC)c2)C3)cc1OC(=O)CC.[Br-].[Br-] (stereo partly drawn) [bis[N-(3,4-dipropionyloxybenzyl)tropanium-3α-yl]cyclobutane-1,2-dicarboxylate dibromide]
[1]; Rattus norvegicus, iv
  ED50: 0.238 mg/kg
[1]; [4]
  VB (vagal block): 17%
  ΔBP (change in arterial blood pressure): 0%
  ΔH (change in heart rate): 0%
[1]; rat
  RI (recovery index): 0.6 min
  Onset: 0.6 min
[2]; Sus scrofa, read-out: ED50
  ED50: 0.317 mg/kg
[2]; [5]
  VB (vagal block): 50%
  ΔBP (change in arterial blood pressure): 0%
  ΔH (change in heart rate): 0%
[2]
  RI (recovery index): 0.6 min
  Onset: 0.7 min
[3]; [6]
  ED50: 0.128 mg/kg
[3]; [5]
  ΔBP (change in arterial blood pressure): 0%
  ΔH (change in heart rate): 0%
[3]
  RI (recovery index): 0.5 min
  Onset: 0.87 min

## CC[N+]1(C)[C@@H]2CC[C@H]1C[C@@H](OC(=O)CCCCC(=O)O[C@H]1C[C@H]3CC[C@@H](C1)[N+]3(C)CC)C2.[I-].[I-] (stereo partly drawn) [bis[N-ethyltropanium-3α-yl]adipate diiodide, reference compound]
[3]; [6]
  ED50: 0.15 mg/kg
[3]; [5]
  ΔBP (change in arterial blood pressure): 0%
  ΔH (change in heart rate): 0%
[3]
  RI (recovery index): 9 min
  Onset: 2.2 min

## CC(=O)Oc1ccc(C[N+]2(C)C3CCC2CC(OC(=O)C2C4C=CC(C4)C2C(=O)OC2CC4CCC(C2)[N+]4(C)Cc2ccc(OC(C)=O)c(OC(C)=O)c2)C3)cc1OC(C)=O.[Br-].[Br-] (stereo not drawn) [bis[N-(3,4-diacetoxybenzyl)tropanium-3β-yl]trans-3,6-endomet] [bis[N-(3,4-diacetoxybenzyl)tropanium-3β-yl]trans-3,6-endomethylene-1,2,3,6-tetrahydrophthalate dibromide]
[1]; [4]
  VB (vagal block): 45%
  ΔBP (change in arterial blood pressure): 0%
  ΔH (change in heart rate): 0%
[1]; [7]
  ED50: 0.258 mg/kg
[1]; rat
  RI (recovery index): 0.5 min
  Onset: 0.68 min
[2]; in vivo
  VB (vagal block): 100%
  ΔBP (change in arterial blood pressure): −5%
  ΔH (change in heart rate): −10%
[2]
  ED50: 0.16 mg/kg
  RI (recovery index): 2 min
  Onset: 1.1 min
[3]; in vivo
  ΔBP (change in arterial blood pressure): 0%
  ΔH (change in heart rate): 0%
[3]
  ED50: 0.21 mg/kg
  RI (recovery index): 0.75 min
  Onset: 0.8 min

## COc1ccc(OC)c(C[N+]2(C)C3CCC2CC(OC(=O)C2C4C=CC(C4)C2C(=O)OC2CC4CCC(C2)[N+]4(C)Cc2cc(OC)ccc2OC)C3)c1.[Br-].[Br-] (stereo not drawn) [bis[N-(2,5-dimethoxybenzyl)tropanium-3α-yl]trans-3,6-endomethylene-1,2,3,6-tetrahydrophthalate dibromide]
[1]; [4]
  VB (vagal block): 32%
  ΔBP (change in arterial blood pressure): 0%
  ΔH (change in heart rate): 0%
[1]; [7]
  ED50: 0.057 mg/kg
[1]; rat
  RI (recovery index): 1.9 min
  Onset: 1 min
[3]; in vivo
  ΔBP (change in arterial blood pressure): 0%
  ΔH (change in heart rate): 0%
[3]
  ED50: 0.01 mg/kg
  RI (recovery index): 9 min
  Onset: 4 min

## C[N+]1(Cc2ccccc2)[C@@H]2CC[C@H]1C[C@@H](OC(=O)CCCC(=O)O[C@H]1C[C@H]3CC[C@@H](C1)[N+]3(C)Cc1ccccc1)C2.[Br-].[Br-] (stereo partly drawn) [bis[N-benzyltropanium-3α-yl]glutarate dibromide, reference compound]
[1]; Rattus norvegicus, iv
  ED50: 5.5 mg/kg
[1]; [4]
  VB (vagal block): 100%
  ΔBP (change in arterial blood pressure): −10%
  ΔH (change in heart rate): 0%
[1]; rat
  RI (recovery index): 3.7 min
  Onset: 2.5 min

## COc1cc(C[N+]23CCC(CC2)C(OC(=O)[C@@H]2[C@@H](C(=O)OC4C[N+]5(Cc6ccc(OC(C)=O)c(OC)c6)CCC4CC5)[C@H]4C=C[C@@H]2C4)C3)ccc1OC(C)=O.[Br-].[Br-] (relative stereo) [bis[N-(4-acetoxy-3-methoxybenzyl)quinuclidinium-3-yl]trans-3,6-endomethylene-1,2,3,6-tetrahydrophthalate dibromide]
[1]; rat, in vivo
  VB (vagal block): 70%
  ΔBP (change in arterial blood pressure): −10%
  ΔH (change in heart rate): −5%
[1]; [7]
  ED50: 2 mg/kg
[1]; rat
  RI (recovery index): 3 min
  Onset: 1.8 min
[3]; in vivo
  ΔBP (change in arterial blood pressure): 0%
  ΔH (change in heart rate): 0%
[3]
  ED50: 0.115 mg/kg
  RI (recovery index): 4.5 min
  Onset: 2.8 min

## COc1cc(C[N+]2(C)[C@@H]3CC[C@H]2C[C@@H](OC(=O)C2CCC2C(=O)O[C@H]2C[C@H]4CC[C@@H](C2)[N+]4(C)Cc2cc(OC)c(OC(C)=O)c(OC)c2)C3)cc(OC)c1OC(C)=O.[Br-].[Br-] (stereo partly drawn) [bis[N-(4-acetoxy-3,5-dimethoxybenzyl)tropanium-3α-yl]cyclobutane-1,2-dicarboxylate dibromide]
[1]; Rattus norvegicus, iv
  ED50: 0.367 mg/kg
[1]; [4]
  VB (vagal block): 20%
  ΔBP (change in arterial blood pressure): 0%
  ΔH (change in heart rate): 0%
[1]; rat
  RI (recovery index): 0.45 min
  Onset: 0.4 min
[3]; [6]
  ED50: 0.298 mg/kg
[3]; [5]
  ΔBP (change in arterial blood pressure): 0%
  ΔH (change in heart rate): 0%
[3]
  RI (recovery index): 0.55 min
  Onset: 0.5 min

## CCCCC[N+]1(C)[C@@H]2CC[C@H]1C[C@@H](OC(=O)CCCCCCCCC(=O)O[C@H]1C[C@H]3CC[C@@H](C1)[N+]3(C)CCCCC)C2.[Br-].[Br-] (stereo partly drawn) [bis[N-(pentyl)tropanium-3α-yl]sebacate dibromide, reference compound]
[2]; Sus scrofa, read-out: ED50
  ED50: 0.3 mg/kg
[2]; [5]
  VB (vagal block): 50%
  ΔBP (change in arterial blood pressure): 0%
  ΔH (change in heart rate): 0%
[2]
  RI (recovery index): 6.9 min
  Onset: 2.00 min

## C[N+]1(CC=Cc2ccccc2)[C@@H]2CC[C@H]1C[C@@H](OC(=O)CCCCCCCCCCC(=O)O[C@H]1C[C@H]3CC[C@@H](C1)[N+]3(C)CC=Cc1ccccc1)C2.[Br-].[Br-] (stereo partly drawn) [bis[N-(3-(phenyl)prop-2-enyl)tropanium-3α-yl]1,10-decanedicarboxylate dibromide, reference compound]
[2]; Sus scrofa, read-out: ED50
  ED50: 0.17 mg/kg
[2]; [5]
  VB (vagal block): 27%
  ΔBP (change in arterial blood pressure): −10%
  ΔH (change in heart rate): 0%
[2]
  RI (recovery index): 6.4 min
  Onset: 1.60 min

## C[N+]1(C)[C@@H]2CC[C@H]1C[C@@H](OC(=O)CCCC(=O)O[C@H]1C[C@H]3CC[C@@H](C1)[N+]3(C)C)C2.[I-].[I-] [bis[N-methyltropanium-3α-yl]glutarate diiodide, reference compound]
[1]; Rattus norvegicus, iv
  ED50: 2 mg/kg
[1]; [4]
  VB (vagal block): 100%
  ΔBP (change in arterial blood pressure): 0%
  ΔH (change in heart rate): 0%
[1]; rat
  RI (recovery index): 4.2 min
  Onset: 1.2 min

## C[N+]1(Cc2ccccc2)[C@@H]2CC[C@H]1C[C@@H](OC(=O)CCCCCCCCC(=O)O[C@H]1C[C@H]3CC[C@@H](C1)[N+]3(C)Cc1ccccc1)C2.[Br-].[Br-] (stereo partly drawn) [bis[N-benzyltropanium-3α-yl]sebacate dibromide, reference compound]
[3]; [6]
  ED50: 0.075 mg/kg
[3]; [5]
  ΔBP (change in arterial blood pressure): 0%
  ΔH (change in heart rate): 0%
[3]
  RI (recovery index): 6 min
  Onset: 2.3 min

## C[N+]1(Cc2ccccc2Br)[C@@H]2CC[C@H]1C[C@@H](OC(=O)CCCC(=O)O[C@H]1C[C@H]3CC[C@@H](C1)[N+]3(C)Cc1ccccc1Br)C2.[Br-].[Br-] (stereo partly drawn) [bis[N-(2-bromobenzyl)tropanium-3α-yl]glutarate dibromide, reference compound]
[1]; Rattus norvegicus, iv
  ED50: 1.4 mg/kg
[1]; [4]
  VB (vagal block): 100%
  ΔBP (change in arterial blood pressure): −9%
  ΔH (change in heart rate): 0%
[1]; rat
  RI (recovery index): 3.6 min
  Onset: 2.3 min

— patent US6376510B1, “Neuromuscular relaxants” (Newlaxant LLC, priority 1997, dated 2002)
